Results: ChEMBL document CHEMBL1133395, “Novel oximes having 5-benzyl-2,4-thiazolidinedione as antihyperglycemic agents: synthesis and structure-activity relationship” (Bioorg Med Chem Lett, 2000)

Key:
[1] = target: T1, Peroxisome proliferator-activated receptor gamma (Homo sapiens, UniProt P37231)
T1 sequence (P37231 whole entry): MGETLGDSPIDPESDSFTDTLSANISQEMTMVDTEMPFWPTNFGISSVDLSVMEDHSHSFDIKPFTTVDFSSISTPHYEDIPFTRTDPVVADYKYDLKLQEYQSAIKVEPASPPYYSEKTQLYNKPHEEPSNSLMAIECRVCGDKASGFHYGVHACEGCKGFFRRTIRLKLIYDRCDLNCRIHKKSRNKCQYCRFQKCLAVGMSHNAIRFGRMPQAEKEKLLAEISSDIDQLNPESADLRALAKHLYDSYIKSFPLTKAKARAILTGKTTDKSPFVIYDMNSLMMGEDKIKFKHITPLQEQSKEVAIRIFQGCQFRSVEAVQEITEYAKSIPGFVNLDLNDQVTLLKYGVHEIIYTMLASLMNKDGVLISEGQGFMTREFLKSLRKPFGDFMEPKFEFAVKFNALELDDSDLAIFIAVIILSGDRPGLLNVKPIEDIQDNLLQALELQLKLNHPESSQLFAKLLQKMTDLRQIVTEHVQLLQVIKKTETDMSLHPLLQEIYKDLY
Description: Peroxisome proliferator activated receptor gamma agonistic activity in HepG2 cells.

Mus musculus = species: Mus musculus; assay: Blood glucose lowering activity in hyperglycemic kk mice.; assay type: functional; set-up: concentration or dose not given beside the values

C/C(=N\OCCOc1ccc(CC2SC(=O)NC2=O)cc1)c1ccc(-c2ccccn2)cc1 (stereo not drawn)
EC50 [1]: 640 nM
Change (Mus musculus): 58%

C/C(=N\OCCOc1ccc(CC2SC(=O)NC2=O)cc1)c1ccncc1 (stereo not drawn)
EC50 [1]: 7900 nM
Change (Mus musculus): 48%

C/C(=N\OCCOc1ccc(CC2SC(=O)NC2=O)cc1)c1ccc(-c2ccncc2)cc1 (stereo not drawn)
EC50 [1]: 1600 nM
Change (Mus musculus): 44%

CC/C(=N\OCCOc1ccc(CC2SC(=O)NC2=O)cc1)c1ccc(-c2ccccc2)cc1 (stereo not drawn)
EC50 [1]: 1600 nM
Change (Mus musculus): 67%

CN(CCOc1ccc(CC2SC(=O)NC2=O)cc1)c1ccccn1.O=C(O)/C=C\C(=O)O (stereo not drawn) [ROSIGLITAZONE MALEATE]
Change (Mus musculus): 66%

C/C(=N\OCCOc1ccc(CC2SC(=O)NC2=O)cc1)c1ccc(-c2cccnc2)cc1 (stereo not drawn)
EC50 [1]: 800 nM
Change (Mus musculus): 42%

C/C(=N\OCCCOc1ccc(CC2SC(=O)NC2=O)cc1)c1ccc(-c2ccccc2)cc1 (stereo not drawn)
EC50 [1]: > 100000 nM
Change (Mus musculus): 20%

C/C(=N\OCCOc1ccc(CC2SC(=O)NC2=O)cc1)c1cccnc1 (stereo not drawn)
EC50 [1]: 2800 nM
Change (Mus musculus): 43%

C/C(=N\OCCOc1ccc(CC2SC(=O)NC2=O)cc1)c1cccc(-c2ccccc2)c1 (stereo not drawn)
EC50 [1]: 330 nM
Change (Mus musculus): 42%

CCC/C(=N\OCCOc1ccc(CC2SC(=O)NC2=O)cc1)c1ccc(-c2ccccc2)cc1 (stereo not drawn)
EC50 [1]: > 100000 nM
Change (Mus musculus): 29%

C/C(=N\OCCOc1ccc(CC2SC(=O)NC2=O)cc1)c1ccccc1-c1ccccc1 (stereo not drawn)
EC50 [1]: > 100000 nM
Change (Mus musculus): 23%

C/C(=N\OCCOc1ccc(CC2SC(=O)NC2=O)cc1)c1ccc(-c2ccccc2)nc1 (stereo not drawn)
Change (Mus musculus): 58%

O=C1NC(=O)C(Cc2ccc(OCCO/N=C/c3ccc(-c4ccccc4)cc3)cc2)S1 (stereo not drawn)
EC50 [1]: > 100000 nM
Change (Mus musculus): 7%

C/C(=N\OCCOc1ccc(CC2SC(=O)NC2=O)cc1)c1ccc(-c2ccccc2)cn1 (stereo not drawn)
EC50 [1]: 1100 nM
Change (Mus musculus): 61%

C/C(=N\OCCOc1ccc(CC2SC(=O)NC2=O)cc1)c1ccc(-c2ccccc2)cc1 (stereo not drawn)
EC50 [1]: 400 nM
Change (Mus musculus): 67%

C/C(=N\OCCOc1ccc(CC2SC(=O)NC2=O)cc1)c1ccccc1 (stereo not drawn)
EC50 [1]: 1700 nM
Change (Mus musculus): 57%

CCc1ccc(CCOc2ccc(CC3SC(=O)NC3=O)cc2)nc1.Cl (stereo not drawn) [PIOGLITAZONE HYDROCHLORIDE]
Change (Mus musculus): 42%

C/C(=N\OCCOc1ccc(CC2SC(=O)NC2=O)cc1)c1ccccn1 (stereo not drawn)
EC50 [1]: 2800 nM
Change (Mus musculus): 67%
